# From PMC6199744, “Development of Chemical Proteomics for the Folateome and Analysis of the Kinetoplastid Folateome” (ACS Infectious Diseases, 2018)
# Like-named read-outs stand apart in the source and are kept apart here.
# Test system: T. brucei lysate proteins
# Assay type: binding, Trypanosoma brucei
smiles,measurement,setting,value
CCCCCCOc1ccc(Cc2cnc(N)nc2N)cc1 [compound 1],fold change,"relative to vehicle control = 1, protein TB09.160.3270 ATP-DEPENDENT DEAD BOX HELICASE, PUTATIVE",0.99
same,fold change,"relative to vehicle control = 1, protein TB09.160.4250 TR[…]",0.87
same,fold change,"relative to vehicle control = 1, protein TB09.211.3540 GLYCEROL KINASE, GLYCOSOMAL",0.92
same,fold change,"relative to vehicle control = 1, protein TB11.01.0450 PROTEIN PHOSPHATASE 1, PUTATIVE",0.96
same,fold change,"relative to vehicle control = 1, protein TB11.01.1270 NUCLEIC ACID BINDING PROTEIN, PUTATIVE",0.97
same,fold change,"relative to vehicle control = 1, protein TB11.01.1290 14-3-3-I PROTEIN",0.77
same,fold change,"relative to vehicle control = 1, protein TB11.02.1135 DYNEIN LIGHT CHAIN, PUTATIVE",0.88
same,fold change,"relative to vehicle control = 1, protein TB11.02.4700 14-3-3 PROTEIN",0.96
same,fold change,"relative to vehicle control = 1, protein TB11.03.0815 DYNEIN LIGHT CHAIN",0.76
same,fold change,"relative to vehicle control = 1, protein TB11.50.0007 DYNEIN LIGHT CHAIN LC8, PUTATIVE",0.99
same,fold change,"relative to vehicle control = 1, protein TB427TMP.01.1400 GLYCYL-TRNA SYNTHETASE, PUTATIVE",0.88
same,fold change,"relative to vehicle control = 1, protein TB427TMP.01.1830 HY[…], CONSERVED",0.86
same,fold change,"relative to vehicle control = 1, protein TB427TMP.01.3370 […] PROTEIN, PUTATIVE",0.94
same,fold change,"relative to vehicle control = 1, protein TB427TMP.01.6880 CYTOSOLIC COAT PROTEIN, PUTATIVE",0.88
same,fold change,"relative to vehicle control = 1, protein TB427TMP.01.7490 HY[…], CONSERVED",0.95
same,fold change,"relative to vehicle control = 1, protein TB427TMP.01.7530 HY[…], CONSERVED",0.92
same,fold change,"relative to vehicle control = 1, protein TB427TMP.02.0750 T-COMPLEX PROTEIN 1, ZETA SUBUNIT, PUTATIVE",0.94
same,fold change,"relative to vehicle control = 1, protein TB427TMP.02.1120 ADENYL[…], PUTATIVE",0.93
same,fold change,"relative to vehicle control = 1, protein TB427TMP.02.1460 HY[…], CONSERVED",0.82
same,fold change,"relative to vehicle control = 1, protein TB427TMP.02.3120 MALIC ENZYME, PUTATIVE",0.77
same,fold change,"relative to vehicle control = 1, protein TB427TMP.02.4550 HY[…], CONSERVED",0.91
same,fold change,"relative to vehicle control = 1, protein TB427TMP.02.5450 GLUCOSE-REGULATED PROTEIN 78, PUTATIVE",0.89
same,fold change,"relative to vehicle control = 1, protein TB427TMP.02.5660 HY[…], CONSERVED",0.82
same,fold change,"relative to vehicle control = 1, protein TB427TMP.03.0090 RIBOKINASE, PUTATIVE",0.87
same,fold change,"relative to vehicle control = 1, protein TB427TMP.03.0460 HY[…], CONSERVED",0.85
same,fold change,"relative to vehicle control = 1, protein TB427TMP.160.4770 PROTEIN KINASE, PUTATIVE",0.92
same,fold change,"relative to vehicle control = 1, protein TB427TMP.160.4910 FLAVOPROTEIN MONOOXYGENASE, PUTATIVE",0.89
same,fold change,"relative to vehicle control = 1, protein TB427TMP.22.0004 HY[…], CONSERVED",0.97
same,fold change,"relative to vehicle control = 1, protein TB427.01.3830 GLUCOSE-6-PHOSPHATE ISOMERASE, GLYCOSOMAL",1
same,fold change,"relative to vehicle control = 1, protein TB427.01.4050 PROTEIN P[…] EF-HAND DOMAINS (PPEF)",0.94
same,fold change,"relative to vehicle control = 1, protein TB427.02.1170 RETRO[…] SPOT (RHS) PROTEIN, PUTATIVE",0.85
same,fold change,"relative to vehicle control = 1, protein TB427.02.6220 ADENOSINE TRANSPORTER 2, PUTATIVE",0.95
same,fold change,"relative to vehicle control = 1, protein TB427.03.3160 POLY(A) POLYMERASE",0.97
same,fold change,"relative to vehicle control = 1, protein TB427.03.3560 HY[…], CONSERVED",0.92
same,fold change,"relative to vehicle control = 1, protein TB427.03.4190 ENDOSOMAL INTEGRAL MEMBRANE PROTEIN, PUTATIVE",0.99
same,fold change,"relative to vehicle control = 1, protein TB427.03.5420 PROTEIN TRANSPORT PROTEIN SEC24",0.8
same,fold change,"relative to vehicle control = 1, protein TB427.04.1510 PHOSPHOLIPID-TRA[…], PUTATIVE",0.88
same,fold change,"relative to vehicle control = 1, protein TB427.05.1320 HY[…], CONSERVED",0.97
same,fold change,"relative to vehicle control = 1, protein TB427.05.300 THYMINE-7-HYDROXYLASE, PUTATIVE",0.92
same,fold change,"relative to vehicle control = 1, protein TB427.05.3800 GLUTAMINE HYDROLYSING (NOT AMMONIA-DEPENDENT) […] PHOSPHATE SYNTHASE, PUTATIVE",0.88
same,fold change,"relative to vehicle control = 1, protein TB427.05.4530 FATTY ACID ELONGASE, PUTATIVE",0.75
same,fold change,"relative to vehicle control = 1, protein TB427.06.2550 RNA-BINDING PROTEIN, PUTATIVE",0.89
same,fold change,"relative to vehicle control = 1, protein TB427.06.3650 ADP-RI[…], PUTATIVE",0.84
same,fold change,"relative to vehicle control = 1, protein TB427.06.3860 HY[…], CONSERVED",0.55
same,fold change,"relative to vehicle control = 1, protein TB427.07.2340 40S RIBOSOMAL PROTEIN S15, PUTATIVE",0.82
same,fold change,"relative to vehicle control = 1, protein TB427.07.2570 MRNA […], PUTATIVE",0.69
same,fold change,"relative to vehicle control = 1, protein TB427.07.7500 THYMINE-7-HYDROXYLASE, PUTATIVE",0.94
same,fold change,"relative to vehicle control = 1, protein TB427.08.3150 T-COMPLEX PROTEIN 1, GAMMA SUBUNIT, PUTATIVE",0.9
same,fold change,"relative to vehicle control = 1, protein TB427.08.3490 HY[…], CONSERVED",0.94
same,fold change,"relative to vehicle control = 1, protein TB427.08.5460 FLAGELLAR CALCIUM-BINDING PROTEIN",0.99
same,fold change,"relative to vehicle control = 1, protein TB427.08.6110 HY[…], CONSERVED",0.71
same,fold change,"relative to vehicle control = 1, protein TB427.10.11930 NAD OR NADP DEPENDENT OXIDOREDUCTASE, PUTATIVE",0.63
same,fold change,"relative to vehicle control = 1, protein TB427.10.12510 P-TYPE H+-ATPASE, PUTATIVE",0.99
same,fold change,"relative to vehicle control = 1, protein TB427.10.13110 DYNEIN LIGHT CHAIN, PUTATIVE",0.86
same,fold change,"relative to vehicle control = 1, protein TB427.10.13880 HY[…], CONSERVED",0.88
same,fold change,"relative to vehicle control = 1, protein TB427.10.14140 PYRUVATE KINASE 1",0.98
same,fold change,"relative to vehicle control = 1, protein TB427.10.14910 SA[…] GLYCOPROTEIN, PUTATIVE",1
same,fold change,"relative to vehicle control = 1, protein TB427.10.15180 […] PROTEIN, PUTATIVE",0.82
same,fold change,"relative to vehicle control = 1, protein TB427.10.2350 PYRUVATE DEH[…] E3 BINDING PROTEIN, PUTATIVE",0.7
same,fold change,"relative to vehicle control = 1, protein TB427.10.4940 NUCLEAR DBF2-RELATED KINASE",0.93
same,fold change,"relative to vehicle control = 1, protein TB427.10.7630 HY[…], CONSERVED",0.98
same,fold change,"relative to vehicle control = 1, protein TB427.10.9800 60S RIBOSOMAL PROTEIN L22",1
same,fold change,"relative to vehicle control = 1, protein TB927.10.12840 MIT[…] PROTEIN, PUTATIVE",0.8
same,fold change,"relative to vehicle control = 1, protein TB927.10.13780 GLYCOGEN SYNTHASE KINASE 3",0.99
same,fold change,"relative to vehicle control = 1, protein TB927.10.14980 INTR[…] PROTEIN IFT52, PUTATIVE",0.96
same,fold change,"relative to vehicle control = 1, protein TB927.1.2330 BETA TUBULIN",0.9
same,fold change,"relative to vehicle control = 1, protein TB927.1.2400 ALPHA TUBULIN",0.89
same,fold change,"relative to vehicle control = 1, protein TB927.10.3280 60S RIBOSOMAL PROTEINS L38, PUTATIVE",0.97
same,fold change,"relative to vehicle control = 1, protein TB927.10.4180 TFIIF-[…] PHOSPHATASE, PUTATIVE",0.98
same,fold change,"relative to vehicle control = 1, protein TB927.10.5330 40S RIBOSOMAL PROTEIN S18, PUTATIVE",1.1
same,fold change,"relative to vehicle control = 1, protein TB927.10.5500 HY[…], CONSERVED",0.92
same,fold change,"relative to vehicle control = 1, protein TB927.10.6670 DYNEIN LIGHT CHAIN, PUTATIVE",0.95
same,fold change,"relative to vehicle control = 1, protein TB927.2.2440 […]-ATPASE SUBUNIT 6",0.96
same,fold change,"relative to vehicle control = 1, protein TB927.2.2510 HY[…], CONSERVED",0.96
same,fold change,"relative to vehicle control = 1, protein TB927.2.3800 MRNA […], PUTATIVE",0.87
same,fold change,"relative to vehicle control = 1, protein TB927.3.1120 GTP-BINDING NUCLEAR PROTEIN RTB2, PUTATIVE",0.91
same,fold change,"relative to vehicle control = 1, protein TB927.3.3490 HIGH MOBILITY GROUP PROTEIN, PUTATIVE",0.88
same,fold change,"relative to vehicle control = 1, protein TB927.4.4650 […] SYNTHASE, PUTATIVE",0.79
same,fold change,"relative to vehicle control = 1, protein TB927.4.5310 SERINE/THREONINE-PROTEIN KINASE A, PUTATIVE",0.99
same,fold change,"relative to vehicle control = 1, protein TB927.5.1930 HY[…], CONSERVED",0.78
same,fold change,"relative to vehicle control = 1, protein TB927.6.2200 HY[…], CONSERVED",0.92
same,fold change,"relative to vehicle control = 1, protein TB927.6.4140 PAR[…] COMPONENT, PUTATIVE",0.9
same,fold change,"relative to vehicle control = 1, protein TB927.7.2500 […] SUBUNIT 1",0.95
same,fold change,"relative to vehicle control = 1, protein TB927.7.2700 NADH-CYTOCHROME B5 REDUCTASE, PUTATIVE",0.76
same,fold change,"relative to vehicle control = 1, protein TB927.7.4480 ADENOSINE 5'-[…], PUTATIVE",0.83
same,fold change,"relative to vehicle control = 1, protein TB927.7.4500 HY[…], CONSERVED",0.97
same,fold change,"relative to vehicle control = 1, protein TB927.8.1510 ATP-DEPENDENT DEAD/H RNA HELICASE, PUTATIVE",0.94
same,fold change,"vs vehicle control, protein TB09.160.3710 PRO[…] NUCLEAR ANTIGEN (PCNA), PUTATIVE",0.96
same,fold change,"vs vehicle control, protein TB11.01.4370 HY[…], CONSERVED",0.98
same,fold change,"vs vehicle control, protein TB427TMP.01.5690 DRBD4",0.94
same,fold change,"vs vehicle control, protein TB427.01.1670 HY[…], CONSERVED",0.91
same,fold change,"vs vehicle control, protein TB427.04.760 GAMMA-ADAPTIN 1, PUTATIVE",0.93
same,fold change,"vs vehicle control, protein TB427.07.1420 HY[…], CONSERVED",0.92
same,fold change,"vs vehicle control, protein TB427.10.11760 PUMILIO/PUF RNA BINDING PROTEIN 6",0.96
same,fold change,"vs vehicle control, protein TB427.10.2290 CHAPERONE PROTEIN DNAJ, PUTATIVE",0.8
same,fold change,"vs vehicle control, protein TB927.5.1630 HY[…], CONSERVED",0.91
